Experimental data taken from PMC6332448, “SAR Studies Leading to the Identification of a Novel Series of Metallo-β-lactamase Inhibitors for the Treatment of Carbapenem-Resistant Enterobacteriaceae Infections That Display Efficacy in an Animal Infection Model” (ACS Infectious Diseases, 2018).
Read-outs that look alike come from different tables or passages of the source.

Experiments:
Experiment in all cases: biochemical
VIM-2 = VIM-2 (Escherichia coli, UniProt Q5U7L7)
IMP-1 = IMP-1 (Serratia marcescens, UniProt P52699); assay type: biochemical; details: for inhibition of IMP-1, in words: tested up to 200 μM
Sequence of IMP-1 (P52699 19-246, looked up, species assumed): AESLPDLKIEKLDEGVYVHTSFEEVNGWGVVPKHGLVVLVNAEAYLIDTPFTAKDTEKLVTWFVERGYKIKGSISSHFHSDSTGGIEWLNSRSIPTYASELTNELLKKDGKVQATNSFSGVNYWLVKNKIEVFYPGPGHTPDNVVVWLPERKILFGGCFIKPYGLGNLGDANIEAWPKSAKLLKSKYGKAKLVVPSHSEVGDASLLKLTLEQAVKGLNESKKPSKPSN

NDM-1 = NDM-1 (Klebsiella pneumoniae, UniProt C7C422); assay type: biochemical; details: for IC50: 10 mM HEPES pH 7.5, 25 °C, average of at least two independent assays; for inhibition of NDM-1, in words: tested up to 200 μM
Sequence of NDM-1 (C7C422 29-270, looked up, species assumed): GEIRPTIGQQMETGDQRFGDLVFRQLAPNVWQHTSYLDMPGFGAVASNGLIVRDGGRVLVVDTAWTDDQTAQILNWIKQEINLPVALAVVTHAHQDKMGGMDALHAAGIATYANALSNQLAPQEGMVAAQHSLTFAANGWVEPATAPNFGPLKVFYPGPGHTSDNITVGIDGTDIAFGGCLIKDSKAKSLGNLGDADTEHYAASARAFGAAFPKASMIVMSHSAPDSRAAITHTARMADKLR

VIM-1 = VIM-1 (Pseudomonas aeruginosa, UniProt A0A0F7KYQ8); assay type: biochemical; details: for inhibition of VIM-1, in words: tested up to 200 μM
[1] = 300 μM imipenem, 10 mM HEPES pH 7.5, 25 °C, average of at least two independent assays, read-out: IMP-1 IC50
[2] = 300 μM imipenem, read-out: NDM-1 IC50
[3] = 300 μM imipenem, 10 mM HEPES pH 7.5, 25 °C, average of at least two independent assays, read-out: VIM-1 IC50

SMILES | IC50 (IMP-1; [1]) [µM] | IC50 (NDM-1; [2]) [µM] | IC50 (VIM-1; [3]) [µM] | also measured
O=C(O)c1ccc2ccccc2n1 [Compound 7] |  |  |  | IC50 (VIM-2): > 200 µM; IC50 (IMP-1): > 200 µM; inhibition of IMP-1, in words (IMP-1): no inhibition; IC50 (NDM-1; NDM-1 IC50, 300 μM imipenem): 40.9 µM; inhibition of NDM-1, in words (NDM-1): modest inhibition; IC50 (VIM-1): > 200 µM; inhibition of VIM-1, in words (VIM-1): no inhibition
Cn1cnc(C(=O)O)c1 [Compound 8] |  |  |  | IC50 (VIM-2): > 200 µM; IC50 (IMP-1): > 200 µM; inhibition of IMP-1, in words (IMP-1): no detectable inhibition; IC50 (NDM-1; NDM-1 IC50, 300 μM imipenem): > 200 µM; inhibition of NDM-1, in words (NDM-1): no detectable inhibition; IC50 (VIM-1): > 200 µM; inhibition of VIM-1, in words (VIM-1): no detectable inhibition
O=C(O)c1cnccn1 [Compound 9] |  |  |  | IC50 (VIM-2): > 200 µM; IC50 (IMP-1): > 200 µM; inhibition of IMP-1, in words (IMP-1): no detectable inhibition; IC50 (NDM-1; NDM-1 IC50, 300 μM imipenem): > 200 µM; inhibition of NDM-1, in words (NDM-1): no detectable inhibition; IC50 (VIM-1): > 200 µM; inhibition of VIM-1, in words (VIM-1): no detectable inhibition
O=C(O)c1cccnn1 [Compound 10] |  |  |  | IC50 (VIM-2): > 200 µM; IC50 (IMP-1): > 200 µM; inhibition of IMP-1, in words (IMP-1): no detectable inhibition; IC50 (NDM-1; NDM-1 IC50, 300 μM imipenem): > 200 µM; inhibition of NDM-1, in words (NDM-1): no detectable inhibition; IC50 (VIM-1): > 200 µM; inhibition of VIM-1, in words (VIM-1): no detectable inhibition
O=C(O)c1cc2ccccc2cn1 [Compound 11] |  |  |  | inhibition of IMP-1, in words (IMP-1): no inhibition; inhibition of NDM-1, in words (NDM-1): modest inhibition; inhibition of VIM-1, in words (VIM-1): no inhibition
O=C(O)c1ncccc1-c1ccncc1 [Compound 12] |  |  |  | IC50 (VIM-2): > 200 µM; IC50 (IMP-1): > 200 µM; IC50 (NDM-1; NDM-1 IC50, 300 μM imipenem): > 200 µM; IC50 (VIM-1): > 200 µM
O=C(O)c1ncccc1-c1ccoc1 [Compound 13] |  |  |  | IC50 (VIM-2): > 200 µM; IC50 (IMP-1): > 200 µM; IC50 (NDM-1; NDM-1 IC50, 300 μM imipenem): > 200 µM; IC50 (VIM-1): > 200 µM
O=C(O)c1ncccc1-c1ccc(F)c(F)c1 [Compound 14] |  |  |  | IC50 (VIM-2): > 200 µM; IC50 (IMP-1): > 200 µM; IC50 (NDM-1; NDM-1 IC50, 300 μM imipenem): > 200 µM; IC50 (VIM-1): > 200 µM
O=C(O)c1cccc(-c2ccoc2)n1 [Compound 15] |  |  |  | IC50 (VIM-2): > 200 µM; IC50 (IMP-1): > 200 µM; IC50 (NDM-1; NDM-1 IC50, 300 μM imipenem): 163 µM; IC50 (VIM-1): > 200 µM
O=C(O)c1cccc(-c2ccc(F)c(F)c2)n1 [Compound 16] |  |  |  | IC50 (VIM-2): > 200 µM; IC50 (IMP-1): > 200 µM; IC50 (NDM-1; NDM-1 IC50, 300 μM imipenem): > 200 µM; IC50 (VIM-1): > 200 µM
O=C(CCc1ccccc1)Nc1cccnc1C(=O)O [Compound 19] | 34.1 | 20.3 | > 200 | 
CCCCC(=O)Nc1cccnc1C(=O)O [Compound 20] | 157 | 11.1 | > 200 | 
O=C(Cc1c(Cl)cccc1Cl)Nc1cccnc1C(=O)O [Compound 21] | > 200 | 8.99 | > 200 | 
COc1ccc(C(=O)Nc2cccc(C(=O)O)n2)cc1 [Compound 24] | 156 | 20.3 | > 200 | 
O=C(O)c1cccc(NC(=O)c2cocn2)n1 [Compound 25] | > 200 | 55.9 | > 200 | 
CCCCC(=O)Nc1cccc(C(=O)O)n1 [Compound 26] | > 200 | 19.4 | > 200 | 
O=C(Cc1c(Cl)cccc1Cl)Nc1cccc(C(=O)O)n1 [Compound 27] | 80 | > 200 | > 200 | 
O=C(Cc1ccc(Cl)c(Cl)c1)Nc1cccc(C(=O)O)n1 [Compound 28] | 82.2 | 3.56 | > 200 | 
O=C(Cc1cccs1)Nc1cccc(C(=O)O)n1 [Compound 29] | > 200 | > 200 | > 200 | 
CS(=O)(=O)c1ccc(S(=O)(=O)Nc2cccnc2C(=O)O)cc1 [Compound 30] | > 200 | 69.9 | > 200 | 
CS(=O)(=O)Nc1cccnc1C(=O)O [Compound 31] | > 200 | 68.8 | > 200 | 
N#Cc1cccc(S(=O)(=O)Nc2cccnc2C(=O)O)c1 [Compound 33] | > 200 | 148 | > 200 | 
O=C(O)c1ncccc1NS(=O)(=O)c1ccccc1Cl [Compound 34] | > 200 | > 200 | > 200 | 

SMILES | IC50 (IMP-1; [1]) [µM] | IC50 (NDM-1; [2]) [µM] | IC50 (VIM-1; [3]) [µM] | also measured
O=C(O)c1ncccc1NS(=O)(=O)c1ccc(F)cc1 [Compound 35] | > 200 | 52.1 | > 200 | 
O=C(O)c1ncccc1NS(=O)(=O)Cc1cccc(F)c1 [Compound 36] | 152 | > 200 | 108 | 
O=C(O)c1ncccc1NS(=O)(=O)Cc1ccc(Cl)cc1 [Compound 42] | 146 | 18.4 | 88.4 | 
O=C(O)c1ncccc1NS(=O)(=O)Cc1ccc([N+](=O)[O-])cc1 [Compound 44] | > 200 | 120 | > 200 | 
COc1cccc(S(=O)(=O)Nc2cccc(C(=O)O)n2)c1 [Compound 45] | > 200 | 43.3 | > 200 | 
O=C(O)c1cccc(NS(=O)(=O)Cc2ccccc2)n1 [Compound 46] | > 200 | 43.7 | > 200 | 
CS(=O)(=O)Nc1cccc(C(=O)O)n1 [Compound 47] | > 200 | 32.8 | > 200 | 
O=C(O)c1cccc(C(=O)NCc2nccs2)n1 [Compound 48] | > 200 | > 200 | > 200 | 
CCCCNC(=O)c1cccc(C(=O)O)n1 [Compound 49] | > 200 | > 200 | > 200 | 
COc1cccc(CC(=O)Nc2ccnc(C(=O)O)c2)c1 [Compound 50] | > 200 | 35.3 | > 200 | 
CCCCC(=O)Nc1ccnc(C(=O)O)c1 [Compound 51] | > 200 | 11.5 | > 200 | 
O=C(Cc1ccccc1)Nc1ccnc(C(=O)O)c1 [Compound 52] | > 200 | 11.6 | > 200 | 
O=C(Cc1cccs1)Nc1ccnc(C(=O)O)c1 [Compound 53] | > 200 | 43 | > 200 | 
O=C(O)c1cc(NS(=O)(=O)Cc2ccccc2)ccn1 [Compound 54] | > 200 | 65 | > 200 | 
O=C(O)c1cc(NS(=O)(=O)c2ccccc2)ccn1 [Compound 55] | > 200 | 145 | > 200 | 
O=C(Cc1ccccc1)Nc1ccc(C(=O)O)nc1 [Compound 56] | > 200 | 21.4 | > 200 | 
O=C(Cc1ccc(F)cc1)Nc1ccc(C(=O)O)nc1 [Compound 57] | > 200 | 27.9 | > 200 | 
O=C(O)c1ccc(NS(=O)(=O)Cc2ccccc2)cn1 [Compound 58] | > 200 | 3.99 | > 200 | 
O=C(O)c1ccc(NS(=O)(=O)c2ccccc2)cn1 [Compound 59] | 114 | 2.17 | 109 | 
N#Cc1cccc(S(=O)(=O)Nc2ccc(C(=O)O)nc2)c1 [Compound 60] | 162 | 7.2 | > 200 | 
O=C(O)c1ncccc1NS(=O)(=O)Cc1ccccc1Cl [Compound 67] |  |  |  | IC50 (NDM-1; NDM-1 IC50, 300 μM imipenem): 32.6 µM; IC50 (VIM-1): 10.9 µM
O=C(O)c1ncccc1NS(=O)(=O)Cc1ccc(Cl)c(Cl)c1 [Compound 69] |  |  |  | IC50 (IMP-1): > 200 µM; IC50 (NDM-1; NDM-1 IC50, 300 μM imipenem): > 200 µM; IC50 (VIM-1): > 200 µM
O=C(O)c1ncccc1NS(=O)(=O)Cc1ccc(Cl)cc1Cl [Compound 71] |  |  |  | IC50 (IMP-1): 74.3 µM; IC50 (NDM-1; NDM-1 IC50, 300 μM imipenem): 80.6 µM; IC50 (VIM-1): 17.5 µM
